Data: US4569937A, “Analgesic mixture of oxycodone and ibuprofen” (priority 1985, dated 1986)
Like-named read-outs stand apart in the source and are kept apart here.

System: phenyl-p-benzoquinone induced writhing in mice
Assay type: in vivo, mice (male CF1)
Conditions: oral, N=43 mice/dose; for % MICE BLOCKED: 5 min

Row | SMILES | % MICE BLOCKED (oxycodone HCl 0.36 mg/kg) | % MICE BLOCKED (oxycodone HCl 0.72 mg/kg) | % MICE BLOCKED (oxycodone HCl 1.44 mg/kg) | % MICE BLOCKED (oxycodone HCl 2.88 mg/kg) | % MICE BLOCKED (oxycodone HCl 5.76 mg/kg) | ED50 AT 5 MIN, Oxycodone (95% Confidence Limits) (oxycodone HCl part of the ED50 dose (alone or at fixed ratio oxycodone:ibuprofen)) | % MICE BLOCKED (ibuprofen 2.25 mg/kg) | % MICE BLOCKED (ibuprofen 4.49 mg/kg) | % MICE BLOCKED (ibuprofen 8.98 mg/kg) | % MICE BLOCKED (ibuprofen 17.96 mg/kg) | ED50 AT 5 MIN, Ibuprofen (95% Confidence Limits) (ibuprofen part of the ED50 dose (alone or at fixed ratio oxycodone:ibuprofen))
1 | COc1ccc2c3c1O[C@H]1C(=O)CC[C@@]4(O)[C@@H](C2)N(C)CC[C@]314 [Oxycodone] | 11.6% | 4.7% | 39.5% | 81.4% | 95.3% | 1.88 mg/kg | – | – | – | – | –
2 | CC(C)Cc1ccc(C(C)C(=O)O)cc1 (stereo not drawn) [Ibuprofen, α-methyl-4-(2-methylpropyl)benzeneacetic acid] | – | – | – | – | – | – | 7.0% | 11.6% | 20.1% | 62.8% | 15.8 mg/kg
